How the values were obtained:
[1] = tested on: PTP4A3 gene expression; test: PTP4A3 expression by RT-PCR in LPS plus inhibitor treated THP-1 cells; type: cell-based, human; details: time course
Experimental: (§1) THP-1 cells were differentiated with 100 nM phorbol-12-myristate-13-acetate (PMA) and seeded (1×10^5) in 6-well plates overnight. After washing by PBS, cells were stimulated with 0.1 mg/ml E. coli LPS for 3 hrs. The cells were washed with PBS again and treated with various inhibitors. 10 μM Sodium orthovandate, 20μM AG490, 20μM U0126, 20μM SB203580 or untreated as control. 200μl of supernatant was collected for ELISA assay (A) from each treatment at 2, 4, 6, 8, 12, 14 and 16 hours and its corresponding mRNA was prepared for RT-PCR (B) by first extracting total RNA from the treated cells using QIAQuick™ RNA miniprep (Qiagen). 1μg of each RNA was used to generate cDNA with Platinum® Quantitative RT-PCR ThermoScript™ One-Step System kit (Invitrogen). 10 ng pf cDNA from each test was PCRed using PTP4A3 forward primer 5′-ATGGCTCGGATGAACCGC-3′ [SEQ ID NO: 2] and reverse primer 5′-CTACATAACGCAGCACCG-3′ [SEQ ID NO: 3]. Another 1 ng of cDNA was PCRed using GAPDH primer pairs (Invitrogen) as control. Densitometric analysis (C) of RT-PCR (B) with intensity values normalized to GAPDH and using 0 hour value as reference intensity.
The PCR or RT-PCR was performed following manufacturer's instructions.

[2] = tested on: LPS-induced TNF-α production; test: Effects of inhibitors on LPS-induced TNF-α production in THP-1 cells (ELISA); type: cell-based, human; details: for LPS-induced TNF-α expression compared to LPS alone / TNF-α levels within 8-10 hrs post treatment: THP-1 cells; for LPS-induced TNF-α expression compared to LPS alone: 0.1 μg/ml E. coli LPS, 10 μM sodium orthovanadate, 20 μM AG490, U0126 or SB203580, ELISA 2-16 hours; for TNF-α levels within 8-10 hrs post treatment: LPS + inhibitor, ELISA
Experimental: as §1, with “5′-[…]-3′” for “5′-ATGGCTCGGATGAACCGC-3′”, “5′-[…]-3′” for “5′-CTACATAACGCAGCACCG-3′”
AG490, U0126 and SB203580 were purchased from EMD Biosciences (San Diego, Calif.). Sodium orthovanadate was purchased from Sigma-Aldrich (Saint Louis, Mo.). Human THP-1 cells were treated with 10 μM Sodium orthovanadate (PTP4A3 inhibitor [Greenwel, P, et al., (1995) Tyrosine dephosphorylation of nuclear proteins mimics transforming growth factor beta 1 stimulation of alpha 2(1) collagen gene expression. Mol Cell Biol 15:6813-6819], 20 μM AG490 (JAK inhibitor [Saudemont, A, et al., (2007) Dormant tumor cells develop cross-resistance to apoptosis induced by CTLs or imatinib mesylate via methylation of suppressor of cytokine signaling 1. Cancer Res 67:4491-4498], 20 μM U0126 (ERK inhibitor [Yang, L, et al., (2007) Inhibition of epidermal growth factor receptor signaling elevates 15-hydroxyprostaglandin dehydrogenase in non-small-cell lung cancer. Cancer Res 67:5587-5593], 20 μM SB203580 (p38 MAPK inhibitor [Hsieh, Y H, et al., (2007) p38 mitogen-activated protein kinase pathway is involved in protein kinase Calpha-regulated invasion in human hepatocellular carcinoma cells. Cancer Res 67:4320-4327].
For primary mouse macrophages or THP-1, cells were seeded (2×10^4 cells in 96-well plate or 2×10^6 cells in six-well plate) and were stimulated with […] of E. coli LPS (Sigma) and/or transiently transfected with […] of DNA using Lipofectamine™ Reagent and/or introduced with 500 ng/ml peptide using Chariot™ kit (ActiveMotif; Carlsbad, Calif.) prior to LPS treatment, then incubated at 37° C., 5% CO2 overnight. Culture supernatants were harvested and centrifuged at 1,500×g to remove cell debris. Concentrations of mouse or human TNF-α in the supernatant of each well of treated and untreated control cells were measured by ELISA (Abraxis, Warminster, Pa.). ELISA immunoreactivity was quantified by using a microplate reader (Bio-Rad, Hercules, Calif.) and graphed.
To investigate a link between PTP4A3 and the LPS signaling cascade, HP-1 cells were co-treated with 0.1 μg/ml E. coli LPS and/or various inhibitors, sodium orthovanadate (PTP4A3 inhibitor), AG490 (JAK inhibitor), U0126 (ERK inhibitor), SB203580 (p38 MAPK inhibitor) or untreated as control. The supernatants from cell culture at each time point (2, 4, 6, 8, 10, 12, 14 and 16 hours post stimulation) were collected and the potential role of these inhibitors on TNF-α production was measured by ELISA (Abraxis; […].). In parallel mRNA from each experimental group was prepared and quantified by RT-PCR.

[3] = tested on: LPS-induced TNF-α expression; details: monocyte cells, 'current studies'; cited from earlier work
[4] = tested on: p38α/LITAF signaling pathway; test: Western blot of p38α/LITAF signaling pathway in LPS-treated THP-1 cells after PTP4A3 overexpression or RNAi; type: cell-based, human
Experimental: THP-1 cells (1×10^5) were stimulated with 0.1 μg/ml E. coli LPS for 3 hours. The cells were washed and transiently transfected with DNAs above using Lipofectamine™ reagent (Invetrogen). Treated cells were then incubated overnight. The supernatants from each culture were measured by ELISA. Elisa immunoreactivity was quantified using a microplate reader (Bio-Rad) and graphed (A). […] THP-1 cells (B) or mouse macrophage cells (C) were stimulated with 0.1 μg/ml E. coli LPS alone for 3 hours and then transfected with 1 μg/ml pcHAPTP DNA (B & C, lane 3) or 1 μg/ml pcDNA (B & C, lane 2) and untreated (B & C, lane 1) as controls by Lipofectamine reagent. Treated cells were incubated overnight and lysed. […]
THP-1 cells (5×10^6) matured by treatment with 200 nM phorbol 12-myristate 13-acetate (Sigma) were treated or untreated with 0.1 μg/ml LPS (Sigma) for 3 h and washed with PBS. […] The protein lysate from the treated or untreated cells were analyzed by Western blotting. […]
LITAF remains inactivated in the absence of p38 MAP kinase (p38α) and the inhibition of p38α down-regulates cytokines such as TNF-α [Tang, X, et al., (2006) LPS-induced TNF-alpha factor (LITAF)-deficient mice express reduced LPS-induced cytokine: Evidence for LITAF-dependent LPS signaling pathways. […] The lysate protein from each treated cell culture was detected by Western blot analysis. […]

Compound | PTP4A3 expression (RT-PCR) [1] | LPS-induced TNF-α expression compared to LPS alone [2] | LPS-induced TNF-α expression at protein and mRNA levels [3] | further results
N#C/C(=C/c1ccc(O)c(O)c1)C(=O)NCc1ccccc1 [AG490] | at a maximum between 8-10 hrs | did not result in a significant decrease |  | TNF-α levels within 8-10 hrs post treatment [2]: did not increase at all
CO[C@H]1[C@@H](OC)C[C@H](C)[C@@H](OC)C2=CC(=O)C=C(NC(=O)/C(C)=C/C=C\[C@H](OC)[C@@H](OC(N)=O)/C(C)=C/[C@@H]1C)C2=O [Herbimycin-A] |  |  | markedly attenuated | 
C[S+]([O-])c1ccc(-c2nc(-c3ccncc3)c(-c3ccc(F)cc3)[nH]2)cc1 (centres unmarked) [SB203580] | at a maximum between 8-10 hrs | significant decrease |  | 
N#CC(=C(/N)Sc1ccccc1N)/C(C#N)=C(\N)Sc1ccccc1N [U0126] | at a maximum between 8-10 hrs | did not result in a significant decrease |  | TNF-α levels within 8-10 hrs post treatment [2]: did not increase at all
O=c1c(-c2ccc(O)cc2)coc2cc(O)cc(O)c12 [genistein] |  |  | markedly attenuated | 
[Na+].[Na+].[Na+].[O]=[V]([O-])([O-])[O-] [sodium orthovanadate, Sodium orthovanadate] | No such maximum occurred | did not result in a significant decrease | further enhanced | LPS-induced expression of TNF-α on co-treatment ([2]; LPS and orthovanadate, FIG. 1, 8-16 hrs): augmented; concentration of secreted TNF-α higher than LPS only treated cells ([2]; on average, at the 8 hr mark and beyond, LPS + 10 μM sodium orthovanadate): 20%
GUACGAGGACGCCAUCCAGUU & AACUGGAUGGCGUCCUCGUAC (listed as RNA, chemistry not given here) [RNAi, small interfering RNA (siRNA) specific for PTP4A3] |  |  |  | p38α phosphorylation in response to LPS ([4]; FIG. 4D, 100 nM siRNA or 0.5 mg pcHAPTP): significantly increased; ability of overexpressed PTP4A3 to dephosphorylate p38 ([4]; pcHAPTP plus RNAi, FIG. 4D lane 5): suppressed

Reference: US8329643B2, “PIMAP39 modulates LPS-induced inflammatory response” (Trustees of Boston University, priority 2008, dated 2012)
